Assay results: patent US10647673B2, “Acetophenone compound, preparation method thereof, and application thereof in fatty liver prevention and treatment” (Nanjing Bioenergy Medicine Science & Technology Co., Ltd., priority 2017, dated 2020)
Entries after “also recorded” stand apart in the source; their conditions may differ.

Experiments:
Assay type in all cases: in vivo
[1] = tested on: nutritive obesity C57 mice; assay: Weight loss experiment in nutritive obesity C57 mice; design: key to body weight of mice: body weight in g; settings: for body weight of mice: high-fat diet, orlistat 40 mg/kg, Compounds 13 and 14 80 mg/kg intragastric, x ± s, n = 6; for effect on body weight compared with Orlistat (in words) / effect on body weight (in words): nutritive obesity C57 mice; for effect on body weight compared with Orlistat (in words): 80 mg/kg vs orlistat 40 mg/kg; for effect on body weight (in words): 80 mg/kg, as compared with Model group
Text: C57 mice, male, 18-20 g of body weight. The mice were randomly divided into Control group, Model group, Orlistat group, Compound 13 group and Compound 14 group, with 6 mice in each group.
(§1) appropriate amounts of orlistat, Compound 13 and Compound 14 were weighed respectively, added with 0.5% CMC-Na and grinded to dissolve.
The mice in Control group were fed with normal diet, and the other mice were fed with high-fat diet. All of the mice had free access to water. After one week of feeding, the pharmaceuticals were intragastrically administrated. The dose was 40 mg/kg body weight for orlistat, 80 mg/kg for Compounds 13 and 14. The body weight of the mice was weighed every week during the experiment which lasted for 28 days.

[2] = tested on: fatty liver of the SD rats; assay: Pathological sections and grading of fatty liver of SD rats; settings: compounds 80 mg/kg, Sim 10 mg/kg, OCA 10 mg/kg
Protocol: 500 g of lard oil was taken, placed in a container, and heated to melt. When the temperature rose to 100° C., it was added with 200 g of cholesterol to dissolve completely, and then further added with 20 g of propylthiouracil. The resulted mixture was stirred well, and added with 500 ml of Tween 80 after dissolution, resulting in an oil phase. At the same time, 600 mL of distilled water and 400 mL of 1,2-propanediol were taken and heated to 60° C. in a water bath, then were added with 40 g of sodium deoxycholate. The resulted mixture was stirred well until realizing complete dissolution, so as to give an aqueous phase. The aqueous phase was added into the oil phase and mixed well to give a lipid emulsion. The lipid emulsion was heated in a water bath of 37° C. before intragastric administration to animals.
An appropriate amount of pharmaceutical was weighed, added with 0.5% CMC-Na, and mixed homogeneously by grinding. There are groups for Compound 01 (80 mg/kg), Compound 02 (80 mg/kg), Compound 03 (80 mg/kg), Compound 04 (80 mg/kg), Compound 05 (80 mg/kg), Compound 06 (80 mg)/kg), Compound 07 (80 mg/kg), Compound 08 (80 mg/kg), Compound 09 (80 mg/kg), Compound 10 (80 mg/kg), Compound 11 (80 mg/kg), Compound 12 (80 mg/kg), Compound 13 (80 mg/kg), Compound 14 (80 mg/kg), Compound 15 (80 mg/kg), Compound 16 (80 mg/kg), Compound 17 (80 mg/kg), Compound 18 (80 mg/kg), Compound 19 (80 mg/kg), Compound 20 (80 mg/kg), Compound 21 (80 mg/kg), and Compound 22 (80 mg/kg).
Male SD rats weighing 180-200 g were fed adaptively for 7 days. Based on body weight, 10 animals were used as control and the remaining animals were intragastrically administered with the lipid emulsion every day, 1 ml/100 g body weight for 14 days. After fasting for 12 hours, 1 mL of blood was collected from the orbits of the animals, and was determined by Hitachi Automatic Biochemical Analyzer 7080 for serum cholesterol (CHO), triglyceride (TG), low density lipoprotein (LDL-C) and high density lipoprotein (HDL-C).
The modeled rats were continued with the intragastric administration of the lipid emulsion. At the same time, the pharmaceutical-administered groups were administrated with a corresponding dose of pharmaceuticals, while the Model group was administrated with an equal volume of solvent. The pharmaceutical-administered groups were administrated with the lipid emulsion in the morning, and with the pharmaceuticals in the afternoon. The animals were measured for the body weight once a week, and were observed. After 14 days of continuous administration, 1 mL of blood was collected from the orbits, and was determined for the contents of triglyceride, cholesterol, low density lipoprotein and high density lipoprotein in blood serum.

[3] = tested on: ob/ob mice; assay: Weight loss experiment in ob/ob mice; settings: for body weight of ob/ob mice: orlistat 40 mg/kg, other pharmaceuticals 80 mg/kg intragastric, x ± s, n = 6; for effect on body weight compared with Orlistat (in words) / effect on body weight (in words): ob/ob mice; for effect on body weight compared with Orlistat (in words): 80 mg/kg vs orlistat 40 mg/kg; for effect on body weight (in words): 80 mg/kg, as compared with Model group
Text: […] ob/ob mice, male, 18-20 g of body weight, fed adaptively for one week before use. The mice were randomly divided into Control group, Model group, Orlistat group, Compound 13 group and Compound 14 group, with 6 mice in each group.
as §1
After feeding for one week, the mice were intragastrically administrated with the pharmaceuticals except the mice of Control group. The dose was 40 mg/kg body weight for orlistat, 80 mg/kg for the other pharmaceuticals. The body weight of the mice was weighed every week during the experiment which lasted for 28 days.

[4] = Experiment Day 0, in g (unit assumed)
[5] = Experiment Day 7, in g (unit assumed)
[6] = Experiment Day 14, in g (unit assumed)
[7] = Experiment Day 21, in g (unit assumed)
[8] = Experiment Day 28, in g (unit assumed)

CC(=O)c1ccc(O)c(OC(=O)C(C)(C)CCCOc2cc(C)ccc2C)c1 [Compound 13]
body weight of mice [1, 4]: 17.20 ± 1.92
body weight of mice [1, 5]: 19.97 ± 0.57
body weight of mice [1, 6]: 21.04 ± 0.29
body weight of mice [1, 7]: 22.14 ± 0.31
body weight of mice ([1]; Experiment Day 28): 23.25 ± 0.26
effect on body weight compared with Orlistat (in words) [1]: better effect than Orlistat
effect on body weight (in words) [1]: obvious effects on weight loss; also recorded: significantly decrease the body weight of the mice from Day 14
Pathological grading: Steatotic hepatocytes ([2]; animal 1): + (25-45% of hepatocytes undergoing steatosis)
Pathological grading: Steatotic hepatocytes ([2]; animal 2): ++ (45-65% of hepatocytes undergoing steatosis)
Pathological grading: Steatotic hepatocytes ([2]; animal 3): + (25-45% of hepatocytes undergoing steatosis)
Pathological grading: Steatotic hepatocytes ([2]; animal 4): ++ (45-65% of hepatocytes undergoing steatosis)
Pathological grading: Steatotic hepatocytes ([2]; animal 5): ++ (45-65% of hepatocytes undergoing steatosis)
body weight of ob/ob mice [3, 4]: 20.74 ± 1.10
body weight of ob/ob mice [3, 5]: 21.43 ± 0.61
body weight of ob/ob mice [3, 6]: 22.10 ± 0.16
body weight of ob/ob mice [3, 7]: 24.53 ± 1.76
body weight of ob/ob mice ([3]; Experiment Day 28): 26.10 ± 1.95
effect on body weight compared with Orlistat (in words) [3]: better effect than Orlistat
effect on body weight (in words) [3]: obvious effects on weight loss; also recorded: significantly decrease the body weight of the ob/ob mice

CC(=O)c1ccc(O)c(OC(=O)c2cccnc2)c1 [Compound 14]
body weight of mice [1, 4]: 17.21 ± 1.57
body weight of mice [1, 5]: 19.83 ± 0.71
body weight of mice [1, 6]: 20.87 ± 0.75
body weight of mice [1, 7]: 21.89 ± 0.77
body weight of mice ([1]; Experiment Day 28): 22.92 ± 0.88
effect on body weight compared with Orlistat (in words) [1]: better effect than Orlistat
effect on body weight (in words) [1]: obvious effects on weight loss; also recorded: significantly decrease the body weight of the mice from Day 14
Pathological grading: Infiltration of inflammatory cells ([2]; animal 1): 0
Pathological grading: Steatotic hepatocytes ([2]; animal 1): + (25-45% of hepatocytes undergoing steatosis)
Pathological grading: Steatotic hepatocytes ([2]; animal 3): + (25-45% of hepatocytes undergoing steatosis)
Pathological grading: Steatotic hepatocytes ([2]; animal 4): + (25-45% of hepatocytes undergoing steatosis)
body weight of ob/ob mice [3, 4]: 20.79 ± 0.39
body weight of ob/ob mice [3, 5]: 21.22 ± 0.38
body weight of ob/ob mice [3, 6]: 22.18 ± 0.42
body weight of ob/ob mice [3, 7]: 24.10 ± 0.45
body weight of ob/ob mice ([3]; Experiment Day 28): 26.17 ± 0.86
effect on body weight compared with Orlistat (in words) [3]: better effect than Orlistat
effect on body weight (in words) [3]: obvious effects on weight loss; also recorded: significantly decrease the body weight of the ob/ob mice

CCCCCCCCCCC[C@@H](C[C@@H]1OC(=O)[C@H]1CCCCCC)OC(=O)[C@H](CC(C)C)NC=O [Orlistat, reference compound]
body weight of mice [1, 4]: 18.28 ± 0.65
body weight of mice [1, 5]: 20.29 ± 0.63
body weight of mice [1, 6]: 21.39 ± 0.70
body weight of mice [1, 7]: 22.51 ± 0.73
body weight of mice [1, 8]: 24.47 ± 0.79
body weight of ob/ob mice [3, 4]: 20.53 ± 0.50
body weight of ob/ob mice [3, 5]: 22.82 ± 1.79
body weight of ob/ob mice [3, 6]: 23.98 ± 1.85
body weight of ob/ob mice [3, 7]: 26.86 ± 1.99
body weight of ob/ob mice [3, 8]: 31.23 ± 2.31
